Results reported in the CheMixHub viscosity set.

Assay: xn = mol fraction of the nth substance listed

CCOC(=O)OCC + CCCCCCCO
101 kPa
Settings	viscosity [mPa·s]
293.15 K, x1 = 0.0488	5.846
293.15 K, x1 = 0.1045	4.795
293.15 K, x1 = 0.1829	3.725
293.15 K, x1 = 0.3015	2.669
293.15 K, x1 = 0.4047	2.08
293.15 K, x1 = 0.4807	1.748
293.15 K, x1 = 0.5714	1.453
293.15 K, x1 = 0.7024	1.153
293.15 K, x1 = 0.7985	0.995
293.15 K, x1 = 0.9023	0.873
293.15 K, x1 = 0.9522	0.831
303.15 K, x1 = 0.06097	4.061
303.15 K, x1 = 0.1159	3.411
303.15 K, x1 = 0.1861	2.773
303.15 K, x1 = 0.296	2.086
303.15 K, x1 = 0.4	1.655
303.15 K, x1 = 0.4747	1.417
303.15 K, x1 = 0.5946	1.149
303.15 K, x1 = 0.7056	0.955
303.15 K, x1 = 0.7928	0.851
303.15 K, x1 = 0.9047	0.755
303.15 K, x1 = 0.9521	0.727
313.15 K, x1 = 0.05658	3.024
313.15 K, x1 = 0.1024	2.586
313.15 K, x1 = 0.1931	2.03
313.15 K, x1 = 0.3063	1.576
313.15 K, x1 = 0.3932	1.348
313.15 K, x1 = 0.4994	1.121
313.15 K, x1 = 0.5837	0.974
313.15 K, x1 = 0.7095	0.811
313.15 K, x1 = 0.7894	0.736
313.15 K, x1 = 0.8956	0.661
313.15 K, x1 = 0.9569	0.634

Cc1ccccc1C + Cc1ccccc1
viscosity [mPa·s], 101.33 kPa
Settings	x2 = 0.3003	x2 = 0.3607	x2 = 0.5223	x2 = 0.6669	x2 = 0.8205
293.15 K	0.722	0.708	0.67	0.64	0.616
303.15 K	0.636	0.626	0.601	0.567	0.546
313.15 K	0.568	0.557	0.528	0.508	0.489
323.15 K	0.507	0.5	0.472	0.456	0.441

c1ccc(Oc2ccccc2)cc1 + NCc1ccccc1
303.15 K, 101 kPa
Settings	viscosity [mPa·s]
x2 = 0.1488	2.696
x2 = 0.2823	2.409
x2 = 0.4028	2.179
x2 = 0.512	1.991
x2 = 0.6114	1.839
x2 = 0.7024	1.714
x2 = 0.786	1.613
x2 = 0.8629	1.531
x2 = 0.934	1.465

c1cc[nH]c1 + c1ccccc1
viscosity [mPa·s], 101 kPa
Settings	x1 = 0.05439	x1 = 0.06772	x1 = 0.1099
303.15 K	0.576	0.579	0.59
323.15 K	0.445	0.452	0.459

CCCCCCCCCCO + CCOC(C)=O
viscosity [mPa·s], 101.33 kPa
Settings	x2 = 0.1664	x2 = 0.3099	x2 = 0.4348	x2 = 0.545	x2 = 0.6423	x2 = 0.7293	x2 = 0.8073	x2 = 0.8778	x2 = 0.9418
298.15 K	6.2	3.758	2.442	1.698	1.238	0.936	0.809	0.657	0.521
303.15 K	5.263	3.279	2.171	1.533	1.235	0.864	0.719	0.613	0.497
308.15 K	4.52	2.876	1.935	1.384	1.032	0.796	0.647	0.583	0.477
